Measured values published in patent US10770169B2, “Method of providing a treatment to a subject based on a dynamic pathway map” (THE REGENTS OF THE UNIVERSITY OF CALIFORNIA, priority 2010, dated 2020).
Like-named read-outs stand apart in the source and are kept apart here.

Assays:
[1] = system: panel of 55 breast cancer cell lines; assay: Cell growth inhibition assay (Cell Titer Glo, 72 h, 9 doses; GI50, TGI, LC50); format: cell-based, human; details: Homo sapiens, read-out: GI50 (converted)
[2] = system: luminal, basal, claudin-low and ERBB2AMP breast cancer cell lines; assay: Associations of clinically relevant subtypes and response (non-parametric ANOVA or t-test on GI50 ranks); format: cell-based, human; details: for Subtype specificity: Table 6, most sensitive subtype, FDR p<0.20
From the text: A central premise of this study is that associations between responses and molecular subtypes observed in preclinical cell line analyses will be recapitulated in the clinic in instances where the predictive molecular features in the cell lines are mirrored in human tumors. We established response-subtype associations by using non-parametric ANOVAs to compare […] values across transcriptional and genomics subtypes.
Differences between GI50s of the groups were compared with a non-parametric ANOVA or t-test, as appropriate, on the ranks. We combined the p-values for the three sets of tests and used false discovery rate (FDR) to correct for multiple testing. For the three-sample test, we performed a post-hoc analysis on the compounds with a significant class effect by comparing each group to all others to determine which group was most sensitive. The p-values for the post-hoc test were FDR-corrected together. In all cases, FDR p<0.20 was deemed significant. […] Analyses were performed in R.

## CN(C)C/C=C/C(=O)Nc1cc2c(Nc3ccc(F)c(Cl)c3)ncnc2cc1O[C@H]1CCOC1 [BIBW 2992]
[1]; BT-20, BT20 cell line, censored GI50 values
  GI50: 2.75 µM
[1]; BT-20, cell line BT20
  GI50: 2.75 µM
[1]; BT-474, BT474 cell line, censored GI50 values
  GI50: 0.00589 µM
[1]; BT-474, cell line BT474
  GI50: 0.00589 µM
[1]; BT-483, BT483 cell line, censored GI50 values
  GI50: 1.66 µM
[1]; BT-483, cell line BT483
  GI50: 1.66 µM
[1]; CAMA-1, CAMA1 cell line, censored GI50 values
  GI50: 2.24 µM
[1]; CAMA-1, cell line CAMA1
  GI50: 2.24 µM
[1]; HCC38, HCC38 cell line, censored GI50 values
  GI50: 1.82 µM
[1]; HCC38, cell line HCC38
  GI50: 1.82 µM
[1]; HCC70, HCC70 cell line, censored GI50 values
  GI50: 0.468 µM
[1]; HCC70, cell line HCC70
  GI50: 0.468 µM
[1]; HCC1143, HCC1143 cell line, censored GI50 values
  GI50: 1.38 µM
[1]; HCC1143, cell line HCC1143
  GI50: 1.38 µM
[1]; HCC1419, HCC1419 cell line, censored GI50 values
  GI50: 0.00295 µM
[1]; HCC1419, cell line HCC1419
  GI50: 0.00295 µM
[1]; HCC1428, HCC1428 cell line, censored GI50 values
  GI50: 1.74 µM
[1]; HCC1428, cell line HCC1428
  GI50: 1.74 µM
[1]; HCC1500, HCC1500 cell line, censored GI50 values
  GI50: 0.339 µM
[1]; HCC1500, cell line HCC1500
  GI50: 0.339 µM
[1]; HCC1806, HCC1806 cell line, censored GI50 values
  GI50: 0.537 µM
[1]; HCC1806, cell line HCC1806
  GI50: 0.537 µM
[1]; HCC1937, HCC1937 cell line, censored GI50 values
  GI50: 2.09 µM
[1]; HCC1937, cell line HCC1937
  GI50: 2.09 µM
[1]; HCC1954, HCC1954 cell line, censored GI50 values
  GI50: 0.123 µM
[1]; HCC1954, cell line HCC1954
  GI50: 0.123 µM
[1]; HCC2185 cell line, censored GI50 values
  GI50: 1.38 µM
[1]; MDA-MB-134-VI, MDAMB134VI cell line, censored GI50 values
  GI50: 3.63 µM
[1]; MDA-MB-175-VII, MDAMB175VII cell line, censored GI50 values
  GI50: 0.00447 µM
[1]; MDA-MB-436, MDAMB436 cell line, censored GI50 values
  GI50: 3.72 µM
[1]; MDA-MB-436, cell line MDAMB436
  GI50: 3.72 µM
[1]; MDA-MB-453, MDAMB453 cell line, censored GI50 values
  GI50: 0.0912 µM
[1]; MDA-MB-453, cell line MDAMB453
  GI50: 0.0912 µM
[1]; MDA-MB-468, MDAMB468 cell line, censored GI50 values
  GI50: 0.631 µM
[1]; MDA-MB-468, cell line MDAMB468
  GI50: 0.631 µM
[1]; SK-BR-3, SKBR3 cell line, censored GI50 values
  GI50: 0.0132 µM
[1]; SK-BR-3, cell line SKBR3
  GI50: 0.0132 µM
[1]; SUM52PE, SUM52PE cell line, censored GI50 values
  GI50: 3.39 µM
[1]; SUM52PE, cell line SUM52PE
  GI50: 3.39 µM
[1]; SUM149PT, SUM149PT cell line, censored GI50 values
  GI50: 0.0741 µM
[1]; SUM149PT, cell line SUM149PT
  GI50: 0.0741 µM
[1]; SUM185PE, SUM185PE cell line, censored GI50 values
  GI50: 5.62 µM
[1]; SUM185PE, cell line SUM185PE
  GI50: 5.62 µM
[1]; SUM225CWN, SUM225CWN cell line, censored GI50 values
  GI50: 0.00933 µM
[1]; SUM225CWN, cell line SUM225CWN
  GI50: 0.00933 µM
[1]; SUM1315MO2, SUM1315MO2 cell line, censored GI50 values
  GI50: 0.162 µM
[1]; SUM-159-PT, SUM159PT cell line, censored GI50 values
  GI50: 2.57 µM
[1]; SUM-159-PT, cell line SUM159PT
  GI50: 2.57 µM
[1]; UACC-812, UACC812 cell line, censored GI50 values
  GI50: 0.00282 µM
[1]; UACC-812, cell line UACC812
  GI50: 0.00282 µM
[1]; ZR-75-1, ZR751 cell line, censored GI50 values
  GI50: 2.34 µM
[1]; ZR-75-1, cell line ZR751
  GI50: 2.34 µM
[1]; ZR-75B, ZR75B cell line, censored GI50 values
  GI50: 3.02 µM
[1]; ZR-75B, cell line ZR75B
  GI50: 3.02 µM
[1]; cell line HCC2185
  GI50: 1.38 µM
[1]; cell line MDAMB134V
  GI50: 3.63 µM
[1]; cell line MDAMB175V
  GI50: 0.00447 µM
[1]; cell line SUM1315MO
  GI50: 0.162 µM
[2]
  association of response with ERBB2 amplification: positively associated with ERBB2 amplification
  Subtype specificity: ERBB2AMP

## COc1cc2ncnc(Nc3ccc(F)c(Cl)c3)c2cc1OCCCN1CCOCC1 [Gefitinib]
[1]; AU565, cell line AU565
  GI50: 1.07 µM
[1]; BT-474, cell line BT474
  GI50: 0.724 µM
[1]; BT-483, cell line BT483
  GI50: 6.17 µM
[1]; BT-549, cell line BT549
  GI50: 15.1 µM
[1]; CAMA-1, cell line CAMA1
  GI50: 26.9 µM
[1]; HCC38, cell line HCC38
  GI50: 28.2 µM
[1]; HCC70, cell line HCC70
  GI50: 17.4 µM
[1]; HCC1143, cell line HCC1143
  GI50: 11.7 µM
[1]; HCC1187, cell line HCC1187
  GI50: 30.2 µM
[1]; HCC1395, cell line HCC1395
  GI50: 7.08 µM
[1]; HCC1419, cell line HCC1419
  GI50: 2.75 µM
[1]; HCC1428, cell line HCC1428
  GI50: 10.7 µM
[1]; HCC1500, cell line HCC1500
  GI50: 8.13 µM
[1]; HCC1806, cell line HCC1806
  GI50: 4.68 µM
[1]; HCC1937, cell line HCC1937
  GI50: 8.32 µM
[1]; HCC1954, cell line HCC1954
  GI50: 2.04 µM
[1]; MCF7, cell line MCF7
  GI50: 26.9 µM
[1]; MDA-MB-157, cell line MDAMB157
  GI50: 15.1 µM
[1]; MDA-MB-231, cell line MDAMB231
  GI50: 33.1 µM
[1]; MDA-MB-361, cell line MDAMB361
  GI50: 6.46 µM
[1]; MDA-MB-415, cell line MDAMB415
  GI50: 7.41 µM
[1]; MDA-MB-436, cell line MDAMB436
  GI50: 33.1 µM
[1]; MDA-MB-453, cell line MDAMB453
  GI50: 7.41 µM
[1]; MDA-MB-468, cell line MDAMB468
  GI50: 25.1 µM
[1]; SK-BR-3, cell line SKBR3
  GI50: 2.82 µM
[1]; SUM52PE, cell line SUM52PE
  GI50: 7.94 µM
[1]; SUM149PT, cell line SUM149PT
  GI50: 2.88 µM
[1]; SUM185PE, cell line SUM185PE
  GI50: 20.9 µM
[1]; SUM-159-PT, cell line SUM159PT
  GI50: 8.51 µM
[1]; T47D, cell line T47D
  GI50: 15.8 µM
[1]; UACC-893, cell line UACC893
  GI50: 1.15 µM
[1]; ZR-75-1, cell line ZR751
  GI50: 32.4 µM
[1]; ZR-75B, cell line ZR75B
  GI50: 21.4 µM
[1]; cell line 600MPE
  GI50: 7.24 µM
[1]; cell line HCC2185
  GI50: 9.33 µM
[1]; cell line HCC3153
  GI50: 33.1 µM
[1]; cell line LY2
  GI50: 27.5 µM
[1]; cell line MDAMB134V
  GI50: 30.2 µM
[1]; cell line MDAMB175V
  GI50: 0.209 µM
[1]; cell line SUM1315MO
  GI50: 2.95 µM
[2]
  association of response with ERBB2 amplification: positively associated with ERBB2 amplification
  Subtype specificity: ERBB2AMP
